Results on 25 molecules are retold here after patent US9687479B2, “Multisubstituted aromatic compounds as serine protease inhibitors” (VERSEON CORPORATION, priority 2013, dated 2017).

Molecules are shown by their SMILES.

One test concerns the target Human thrombin (Homo sapiens (Human), UniProt P00734). The test can be described thus: Thrombin protease activity inhibition assay (chromogenic substrate S-2238). Type of test: biochemical. The settings on record: 3 nM thrombin, 125 μM S-2238, 10 min pre-incubation, RT. The method, boiled down:
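Thrombin at 3 nM final in 0.05 M Tris pH 7.4, 0.015 M NaCl, 0.01% PEG-8000, at room temperature; compounds as ten-point three-fold dilutions.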

A further test deals with Human KLKB1 (Homo sapiens (Human), UniProt P03952). The test can be described thus: KLKB1 kallikrein activity inhibition assay (chromogenic substrate S-2302). Type of test: biochemical. To be noted: Table B. In a few lines:
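Enzyme at a final 3 nM was assayed in 0.05 M Tris pH 7.4, 0.01 M NaCl and 0.2% PEG-8000 at room temperature, with compounds as ten-point threefold dilutions.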

Human KLKB1, sequence (P03952 391-638 limits assumed): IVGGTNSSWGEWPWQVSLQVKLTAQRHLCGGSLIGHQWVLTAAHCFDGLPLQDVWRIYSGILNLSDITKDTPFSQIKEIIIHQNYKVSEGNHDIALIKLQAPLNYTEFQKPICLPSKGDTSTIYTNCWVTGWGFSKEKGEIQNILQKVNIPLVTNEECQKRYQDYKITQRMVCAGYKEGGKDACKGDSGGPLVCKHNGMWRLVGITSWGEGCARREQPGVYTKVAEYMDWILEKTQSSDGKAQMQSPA
Human KLKB1, sequence (P03952 20-390 partner limits assumed): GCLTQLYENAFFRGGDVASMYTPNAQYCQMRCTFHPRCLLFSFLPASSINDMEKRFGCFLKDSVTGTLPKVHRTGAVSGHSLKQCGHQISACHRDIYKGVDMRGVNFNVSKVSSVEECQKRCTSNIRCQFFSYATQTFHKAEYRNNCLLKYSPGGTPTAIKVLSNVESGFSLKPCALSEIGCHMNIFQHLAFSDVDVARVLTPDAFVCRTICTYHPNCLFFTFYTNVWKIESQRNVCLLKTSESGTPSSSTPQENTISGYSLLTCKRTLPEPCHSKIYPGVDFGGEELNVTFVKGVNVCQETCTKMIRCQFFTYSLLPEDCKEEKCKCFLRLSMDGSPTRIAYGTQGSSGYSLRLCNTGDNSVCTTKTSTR

Take `COCC(C)(C)C(=O)n1nc(-c2cccn(Cc3ccncc3)c2=O)cc1NCc1ccc(Cl)s1` [Cmpd 103, 3-(5-[(5-chlorothiophen-2-yl)methyl]amino-1-(3-methoxy-2,2-dimethylpropanoyl)-1H-pyrazol-3-yl)-1-(pyridin-4-ylmethyl)-1,2-dihydropyridin-2-one]: the half-inhibitory concentration (IC50) on Human thrombin was < 0.1 µM; against Human KLKB1 it was 10 to 100 µM.
For `COCC(C)(C)C(=O)n1nc(-c2cccn(Cc3ncccn3)c2=O)cc1NCc1ccc(Cl)s1` [Cmpd 104, 3-(5-[(5-chlorothiophen-2-yl)methyl]amino-1-(3-methoxy-2,2-dimethylpropanoyl)-1H-pyrazol-3-yl)-1-(pyrimidin-2-ylmethyl)-1,2-dihydropyridin-2-one], in that order: < 0.1 µM and 1 to 10 µM.
The matching figures for `COCC(C)(C)C(=O)n1nc(-c2cccn(Cc3cccs3)c2=O)cc1NCc1ccc(Cl)s1` [Cmpd 105, 3-(5-[(5-chlorothiophen-2-yl)methyl]amino-1-(3-methoxy-2,2-dimethylpropanoyl)-1H-pyrazol-3-yl)-1-(thiophen-2-ylmethyl)-1,2-dihydropyridin-2-one]: < 0.1 µM and > 100 µM.
As to `COCC(C)(C)C(=O)n1nc(-c2cccn(Cc3ccsc3)c2=O)cc1NCc1ccc(Cl)s1` [Cmpd 106, 3-(5-[(5-chlorothiophen-2-yl)methyl]amino-1-(3-methoxy-2,2-dimethylpropanoyl)-1H-pyrazol-3-yl)-1-(thiophen-3-ylmethyl)-1,2-dihydropyridin-2-one], the IC50 against Human thrombin was < 0.1 µM; against Human KLKB1 it was > 100 µM.
For `COCCn1cccc(-c2cc(NCc3ccc(Cl)s3)n(C(=O)c3cccc4c3OCCO4)n2)c1=O` [Cmpd 109, 3-(5-[(5-chlorothiophen-2-yl)methyl]amino-1-[(2,3-dihydro-1,4-benzodioxin-5-yl)carbonyl]-1H-pyrazol-3-yl)-1-(2-methoxyethyl)-1,2-dihydropyridin-2-one], in that order: < 0.1 µM and 1 to 10 µM.
For `O=C(c1cccc2c1OCCO2)n1nc(-c2cccn(Cc3ncccn3)c2=O)cc1NCc1ccc(Cl)s1` [Cmpd 116, 3-(5-[(5-chlorothiophen-2-yl)methyl]amino-1-[(2,3-dihydro-1,4-benzodioxin-5-yl)carbonyl]-1H-pyrazol-3-yl)-1-(pyrimidin-2-ylmethyl)-1,2-dihydropyridin-2-one], in that order: < 0.1 µM and 1 to 10 µM.
In the case of `O=C(c1cccc2c1OCCO2)n1nc(-c2cccn(Cc3cccs3)c2=O)cc1NCc1ccc(Cl)s1` [Cmpd 117, 3-(5-[(5-chlorothiophen-2-yl)methyl]amino-1-[(2,3-dihydro-1,4-benzodioxin-5-yl)carbonyl]-1H-pyrazol-3-yl)-1-(thiophen-2-ylmethyl)-1,2-dihydropyridin-2-one], the IC50 against Human thrombin is < 0.1 µM; against Human KLKB1 it was > 100 µM.
The matching figures for `COCCn1cccc(-c2cc(NCc3ccc(Cl)s3)n(C(=O)c3ccc(OC)cc3OC)n2)c1=O` [Cmpd 122, 3-(5-[(5-chlorothiophen-2-yl)methyl]amino-1-[(2,4-dimethoxyphenyl)carbonyl]-1H-pyrazol-3-yl)-1-(2-methoxyethyl)-1,2-dihydropyridin-2-one]: < 0.1 µM and 1 to 10 µM.
For `COc1ccc(C(=O)n2nc(-c3cccn(Cc4ccoc4)c3=O)cc2NCc2ccc(Cl)s2)c(OC)c1` [Cmpd 123, 3-(5-[(5-chlorothiophen-2-yl)methyl]amino-1-[(2,4-dimethoxyphenyl)carbonyl]-1H-pyrazol-3-yl)-1-(furan-3-ylmethyl)-1,2-dihydropyridin-2-one], in that order: < 0.1 µM and 10 to 100 µM.
The matching figures for `COc1ccc(C(=O)n2nc(-c3cccn(Cc4ccccn4)c3=O)cc2NCc2ccc(Cl)s2)c(OC)c1` [Cmpd 125, 3-(5-[(5-chlorothiophen-2-yl)methyl]amino-1-[(2,4-dimethoxyphenyl)carbonyl]-1H-pyrazol-3-yl)-1-(pyridin-2-ylmethyl)-1,2-dihydropyridin-2-one]: < 0.1 µM and 1 to 10 µM.
On to `COc1ccc(C(=O)n2nc(-c3cccn(CCN4CCOCC4)c3=O)cc2NCc2ccc(Cl)s2)c(OC)c1` [Cmpd 131, 3-(5-[(5-chlorothiophen-2-yl)methyl]amino-1-[(2,4-dimethoxyphenyl)carbonyl]-1H-pyrazol-3-yl)-1-[2-(morpholin-4-yl)ethyl]-1,2-dihydropyridin-2-one], for which the IC50 against Human thrombin is < 0.1 µM; against Human KLKB1 it was 0.1 to 1 µM.
For `COc1ccccc1C(=O)n1nc(-c2cccn(Cc3cccnc3)c2=O)cc1NCc1ccc(Cl)s1` [Cmpd 140, 3-(5-[(5-chlorothiophen-2-yl)methyl]amino-1-[(2-methoxyphenyl)carbonyl]-1H-pyrazol-3-yl)-1-(pyridin-3-ylmethyl)-1,2-dihydropyridin-2-one], in that order: < 0.1 µM and 0.1 to 1 µM.
For `CC1(C(=O)n2nc(-c3cccn(Cc4cccs4)c3=O)cc2NCc2ccc(Cl)s2)CCOCC1` [Cmpd 157, 3-(5-[(5-chlorothiophen-2-yl)methyl]amino-1-[(4-methyloxan-4-yl)carbonyl]-1H-pyrazol-3-yl)-1-(thiophen-2-ylmethyl)-1,2-dihydropyridin-2-one], in that order: < 0.1 µM and > 100 µM.
The matching figures for `COCCn1cccc(-c2cc(NCc3ccc(Cl)s3)n(C(=O)c3ccco3)n2)c1=O` [Cmpd 160, 3-(5-[(5-chlorothiophen-2-yl)methyl]amino-1-[(furan-2-yl)carbonyl]-1H-pyrazol-3-yl)-1-(2-methoxyethyl)-1,2-dihydropyridin-2-one]: > 100 µM and 0.1 to 1 µM.
As for `O=C(c1ccoc1)n1nc(-c2cccn(Cc3ccsc3)c2=O)cc1NCc1ccc(Cl)s1` [Cmpd 179, 3-(5-[(5-chlorothiophen-2-yl)methyl]amino-1-[(furan-3-yl)carbonyl]-1H-pyrazol-3-yl)-1-(thiophen-3-ylmethyl)-1,2-dihydropyridin-2-one], the IC50 at Human thrombin was < 0.1 µM; at Human KLKB1, 10 to 100 µM.
For `COCCn1cccc(-c2cc(NCc3ccc(Cl)s3)n(C(=O)c3cccs3)n2)c1=O` [Cmpd 182, 3-(5-[(5-chlorothiophen-2-yl)methyl]amino-1-[(thiophen-2-yl)carbonyl]-1H-pyrazol-3-yl)-1-(2-methoxyethyl)-1,2-dihydropyridin-2-one], in that order: < 0.1 µM and 1 to 10 µM.
Consider `O=C(c1cccs1)n1nc(-c2cccn(Cc3ccoc3)c2=O)cc1NCc1ccc(Cl)s1` [Cmpd 184, 3-(5-[(5-chlorothiophen-2-yl)methyl]amino-1-[(thiophen-2-yl)carbonyl]-1H-pyrazol-3-yl)-1-(furan-3-ylmethyl)-1,2-dihydropyridin-2-one], for which the IC50 was < 0.1 µM against Human thrombin and 10 to 100 µM against Human KLKB1.
With `COCCn1cccc(-c2cc(NCc3ccc(Cl)s3)n(C(=O)c3ccsc3)n2)c1=O` [Cmpd 194, 3-(5-[(5-chlorothiophen-2-yl)methyl]amino-1-[(thiophen-3-yl)carbonyl]-1H-pyrazol-3-yl)-1-(2-methoxyethyl)-1,2-dihydropyridin-2-one], the figures for the IC50 at Human thrombin and against Human KLKB1 were < 0.1 µM and 0.1 to 1 µM, respectively.
The matching figures for `O=C(c1ccsc1)n1nc(-c2cccn(Cc3ccoc3)c2=O)cc1NCc1ccc(Cl)s1` [Cmpd 196, 3-(5-[(5-chlorothiophen-2-yl)methyl]amino-1-[(thiophen-3-yl)carbonyl]-1H-pyrazol-3-yl)-1-(furan-3-ylmethyl)-1,2-dihydropyridin-2-one]: < 0.1 µM and 0.1 to 1 µM.
For `O=C(c1ccsc1)n1nc(-c2cccn(Cc3ccccn3)c2=O)cc1NCc1ccc(Cl)s1` [Cmpd 198, 3-(5-[(5-chlorothiophen-2-yl)methyl]amino-1-[(thiophen-3-yl)carbonyl]-1H-pyrazol-3-yl)-1-(pyridin-2-ylmethyl)-1,2-dihydropyridin-2-one], in that order: < 0.1 µM and 0.1 to 1 µM.
The matching figures for `O=C(c1ccsc1)n1nc(-c2cccn(Cc3ncccn3)c2=O)cc1NCc1ccc(Cl)s1` [Cmpd 201, 3-(5-[(5-chlorothiophen-2-yl)methyl]amino-1-[(thiophen-3-yl)carbonyl]-1H-pyrazol-3-yl)-1-(pyrimidin-2-ylmethyl)-1,2-dihydropyridin-2-one]: < 0.1 µM and 0.1 to 1 µM.
With `O=C(c1ccsc1)n1nc(-c2cccn(Cc3ccsc3)c2=O)cc1NCc1ccc(Cl)s1` [Cmpd 203, 3-(5-[(5-chlorothiophen-2-yl)methyl]amino-1-[(thiophen-3-yl)carbonyl]-1H-pyrazol-3-yl)-1-(thiophen-3-ylmethyl)-1,2-dihydropyridin-2-one], the IC50 was < 0.1 µM on Human thrombin and 0.1 to 1 µM at Human KLKB1.
Turning to `COCCn1cccc(-c2cc(NCc3ccc(Cl)s3)n(C(=O)c3ccc(N4CCOCC4)cc3)n2)c1=O` [Cmpd 208, 3-(5-[(5-chlorothiophen-2-yl)methyl]amino-1-[4-(morpholin-4-yl)phenyl]carbonyl-1H-pyrazol-3-yl)-1-(2-methoxyethyl)-1,2-dihydropyridin-2-one], the IC50 against Human thrombin is < 0.1 µM; against Human KLKB1 it was 1 to 10 µM.
For `O=C(c1ccc(N2CCOCC2)cc1)n1nc(-c2cccn(Cc3ccoc3)c2=O)cc1NCc1ccc(Cl)s1` [Cmpd 210, 3-(5-[(5-chlorothiophen-2-yl)methyl]amino-1-[4-(morpholin-4-yl)phenyl]carbonyl-1H-pyrazol-3-yl)-1-(furan-3-ylmethyl)-1,2-dihydropyridin-2-one], in that order: < 0.1 µM and 10 to 100 µM.
For `O=C(c1ccc(N2CCOCC2)cc1)n1nc(-c2cccn(Cc3ccncc3)c2=O)cc1NCc1ccc(Cl)s1` [Cmpd 214, 3-(5-[(5-chlorothiophen-2-yl)methyl]amino-1-[4-(morpholin-4-yl)phenyl]carbonyl-1H-pyrazol-3-yl)-1-(pyridin-4-ylmethyl)-1,2-dihydropyridin-2-one], in that order: < 0.1 µM and 0.1 to 1 µM.

As usually defined, the IC50 is the concentration needed to halve the response being measured.
